From ChEMBL document CHEMBL3390834, “Development of second generation epigenetic agents” (Medchemcomm, 2012)
Values belong to the molecule of their own block, whether it stands above or below them.

What was measured:
[1] = molecular target: T1, Lysine-specific histone demethylase 1A (Homo sapiens, UniProt O60341); assay: Inhibition of human LSD-1 by fluorescence-based assay
[2] = molecular target: T1, Lysine-specific histone demethylase 1A; assay: Inhibition of N-terminal His-6-tagged full length human LSD-1 expressed in Escherichia coli BL21 (DE3) using H3K4me2 peptide as substrate at 1 uM by Western blotting analysis relative to control
[3] = molecular target: T2, Histone acetyltransferase p300 (Homo sapiens, UniProt Q09472); assay: Inhibition of recombinant p300 (unknown origin) expressed in baculovirus expression system using [3H]acetyl-CoA as substrate preincubated for 10 mins followed by substrate addition measured after 10 mins by liquid scintillation counting analysis
T2 sequence (Q09472 whole entry): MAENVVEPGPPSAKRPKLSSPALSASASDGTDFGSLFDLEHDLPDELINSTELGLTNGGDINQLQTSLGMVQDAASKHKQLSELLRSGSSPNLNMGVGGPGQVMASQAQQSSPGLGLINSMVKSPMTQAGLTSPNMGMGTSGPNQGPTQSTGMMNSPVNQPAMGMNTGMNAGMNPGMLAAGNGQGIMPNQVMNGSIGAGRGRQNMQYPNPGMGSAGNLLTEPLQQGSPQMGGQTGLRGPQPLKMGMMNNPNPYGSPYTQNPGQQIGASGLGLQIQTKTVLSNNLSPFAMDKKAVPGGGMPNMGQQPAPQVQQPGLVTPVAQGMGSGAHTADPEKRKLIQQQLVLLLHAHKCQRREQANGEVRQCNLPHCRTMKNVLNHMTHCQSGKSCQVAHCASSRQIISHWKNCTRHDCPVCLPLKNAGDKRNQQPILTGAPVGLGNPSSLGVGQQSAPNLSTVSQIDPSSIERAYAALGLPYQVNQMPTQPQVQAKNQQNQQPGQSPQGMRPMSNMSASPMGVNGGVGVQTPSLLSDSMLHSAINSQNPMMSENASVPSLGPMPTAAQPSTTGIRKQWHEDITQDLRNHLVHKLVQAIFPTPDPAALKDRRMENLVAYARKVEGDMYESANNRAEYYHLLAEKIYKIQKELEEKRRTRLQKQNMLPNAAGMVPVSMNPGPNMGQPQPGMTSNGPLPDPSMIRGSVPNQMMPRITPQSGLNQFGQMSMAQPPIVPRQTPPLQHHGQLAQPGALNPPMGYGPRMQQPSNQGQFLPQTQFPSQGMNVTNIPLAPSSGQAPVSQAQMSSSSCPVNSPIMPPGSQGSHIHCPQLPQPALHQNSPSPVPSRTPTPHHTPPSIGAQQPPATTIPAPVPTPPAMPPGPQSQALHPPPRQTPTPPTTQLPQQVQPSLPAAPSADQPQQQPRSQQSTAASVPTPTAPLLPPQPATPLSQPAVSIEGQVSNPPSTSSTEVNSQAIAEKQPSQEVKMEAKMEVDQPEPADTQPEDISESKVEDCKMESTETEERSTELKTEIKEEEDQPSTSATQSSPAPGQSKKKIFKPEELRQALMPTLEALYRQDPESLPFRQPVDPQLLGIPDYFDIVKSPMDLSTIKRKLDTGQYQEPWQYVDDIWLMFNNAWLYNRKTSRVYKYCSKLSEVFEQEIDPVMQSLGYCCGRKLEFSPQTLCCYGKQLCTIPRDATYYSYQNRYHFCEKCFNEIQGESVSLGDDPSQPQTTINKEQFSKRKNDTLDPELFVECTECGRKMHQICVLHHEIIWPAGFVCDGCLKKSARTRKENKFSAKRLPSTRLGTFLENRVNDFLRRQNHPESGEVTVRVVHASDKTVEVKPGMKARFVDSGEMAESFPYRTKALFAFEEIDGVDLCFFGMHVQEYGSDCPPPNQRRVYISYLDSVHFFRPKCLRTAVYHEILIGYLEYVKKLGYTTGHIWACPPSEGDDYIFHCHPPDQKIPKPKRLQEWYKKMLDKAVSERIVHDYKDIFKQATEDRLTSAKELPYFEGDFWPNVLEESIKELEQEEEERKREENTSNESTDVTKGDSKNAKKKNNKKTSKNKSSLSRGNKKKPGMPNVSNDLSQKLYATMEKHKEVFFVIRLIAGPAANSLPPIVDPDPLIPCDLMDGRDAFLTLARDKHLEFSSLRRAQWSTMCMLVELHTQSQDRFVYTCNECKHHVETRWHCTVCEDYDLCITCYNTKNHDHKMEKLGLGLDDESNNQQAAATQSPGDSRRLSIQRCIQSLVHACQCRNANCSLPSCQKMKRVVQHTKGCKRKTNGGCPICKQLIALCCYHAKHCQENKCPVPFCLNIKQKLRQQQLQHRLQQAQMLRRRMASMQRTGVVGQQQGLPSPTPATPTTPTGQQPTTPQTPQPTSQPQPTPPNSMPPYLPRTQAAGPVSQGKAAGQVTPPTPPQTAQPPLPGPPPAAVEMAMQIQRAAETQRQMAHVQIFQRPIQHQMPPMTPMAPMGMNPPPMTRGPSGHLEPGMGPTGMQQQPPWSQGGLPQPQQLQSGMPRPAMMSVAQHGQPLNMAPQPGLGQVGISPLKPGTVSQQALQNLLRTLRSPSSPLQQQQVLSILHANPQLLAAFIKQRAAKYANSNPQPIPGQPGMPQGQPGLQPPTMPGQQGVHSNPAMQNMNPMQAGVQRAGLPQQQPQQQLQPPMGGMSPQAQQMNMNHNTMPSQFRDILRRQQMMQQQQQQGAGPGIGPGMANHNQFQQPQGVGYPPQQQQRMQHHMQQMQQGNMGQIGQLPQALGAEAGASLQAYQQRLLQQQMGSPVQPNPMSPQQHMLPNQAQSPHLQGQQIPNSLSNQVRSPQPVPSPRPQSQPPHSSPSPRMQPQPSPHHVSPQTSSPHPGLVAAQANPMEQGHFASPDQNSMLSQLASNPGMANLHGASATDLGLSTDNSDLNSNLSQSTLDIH

CREB-binding protein = CREB-binding protein (Homo sapiens, UniProt Q92793); assay: Inhibition of CBP (unknown origin)
[4] = molecular target: Histone acetyltransferase KAT2A (Homo sapiens, UniProt Q92830); assay: Inhibition of human GCN5
Sequence of Histone acetyltransferase KAT2A (Q92830 whole entry): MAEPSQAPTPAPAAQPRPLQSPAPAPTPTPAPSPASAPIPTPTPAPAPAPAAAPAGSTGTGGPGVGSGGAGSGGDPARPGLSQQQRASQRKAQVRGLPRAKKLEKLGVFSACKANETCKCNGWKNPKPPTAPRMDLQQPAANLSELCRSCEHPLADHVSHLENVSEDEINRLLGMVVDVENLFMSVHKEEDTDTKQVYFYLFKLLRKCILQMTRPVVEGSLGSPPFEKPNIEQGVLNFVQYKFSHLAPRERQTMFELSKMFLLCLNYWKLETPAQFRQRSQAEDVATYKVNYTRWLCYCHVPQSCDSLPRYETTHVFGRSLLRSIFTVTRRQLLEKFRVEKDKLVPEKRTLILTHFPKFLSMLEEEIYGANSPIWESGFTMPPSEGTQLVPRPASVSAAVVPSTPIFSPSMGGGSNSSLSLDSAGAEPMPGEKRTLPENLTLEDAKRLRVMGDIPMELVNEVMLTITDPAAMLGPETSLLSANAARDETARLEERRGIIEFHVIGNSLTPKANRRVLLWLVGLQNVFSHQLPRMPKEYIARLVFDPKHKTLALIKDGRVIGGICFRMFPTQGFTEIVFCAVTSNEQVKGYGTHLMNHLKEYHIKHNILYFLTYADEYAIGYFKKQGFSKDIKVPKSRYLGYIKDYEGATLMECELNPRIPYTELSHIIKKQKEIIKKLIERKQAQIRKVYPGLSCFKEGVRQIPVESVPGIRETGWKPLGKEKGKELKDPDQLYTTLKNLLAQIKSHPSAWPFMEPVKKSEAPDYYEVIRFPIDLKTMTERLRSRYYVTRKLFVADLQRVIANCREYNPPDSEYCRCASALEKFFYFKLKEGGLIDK

[5] = molecular target: T2, Histone acetyltransferase p300
Description: Inhibition of His6-tagged recombinant full length p300 (unknown origin) expressed in baculovirus infected insect Sf21 cells using [3H]acetyl-CoA as substrate preincubated for 10 mins followed by substrate addition measured after 10 mins by liquid scintillation counting analysis

[6] = molecular target: T2, Histone acetyltransferase p300; assay: Inhibition of p300 (unknown origin)
[7] = molecular target: T3, Histone-arginine methyltransferase CARM1 (Homo sapiens, UniProt Q86X55); assay: Inhibition of full-length GST-tagged CARM-1 (unknown origin) expressed in Spodoptera frugiperda cells using histone H3 and tritiated-SAM as substrate
T3 sequence (Q86X55 whole entry): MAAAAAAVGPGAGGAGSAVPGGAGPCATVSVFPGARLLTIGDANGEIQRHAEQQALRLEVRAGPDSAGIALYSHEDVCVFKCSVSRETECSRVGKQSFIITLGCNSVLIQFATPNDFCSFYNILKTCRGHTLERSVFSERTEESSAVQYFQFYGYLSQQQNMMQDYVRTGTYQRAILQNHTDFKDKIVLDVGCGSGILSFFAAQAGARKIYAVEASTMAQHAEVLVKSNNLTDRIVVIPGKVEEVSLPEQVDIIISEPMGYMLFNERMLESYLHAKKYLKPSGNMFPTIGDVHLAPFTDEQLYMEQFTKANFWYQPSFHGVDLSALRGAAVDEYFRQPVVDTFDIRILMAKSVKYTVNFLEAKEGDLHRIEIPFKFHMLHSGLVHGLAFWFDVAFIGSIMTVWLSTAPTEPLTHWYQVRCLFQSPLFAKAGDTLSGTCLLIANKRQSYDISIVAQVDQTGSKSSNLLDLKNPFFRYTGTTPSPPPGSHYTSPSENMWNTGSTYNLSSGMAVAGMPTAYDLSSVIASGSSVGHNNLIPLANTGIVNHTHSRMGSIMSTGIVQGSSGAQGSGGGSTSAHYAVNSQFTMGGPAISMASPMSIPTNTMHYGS

Histone deacetylase 1 = Histone deacetylase 1 (Homo sapiens, UniProt Q13547)
Sequence of Histone deacetylase 1 (Q13547 whole entry): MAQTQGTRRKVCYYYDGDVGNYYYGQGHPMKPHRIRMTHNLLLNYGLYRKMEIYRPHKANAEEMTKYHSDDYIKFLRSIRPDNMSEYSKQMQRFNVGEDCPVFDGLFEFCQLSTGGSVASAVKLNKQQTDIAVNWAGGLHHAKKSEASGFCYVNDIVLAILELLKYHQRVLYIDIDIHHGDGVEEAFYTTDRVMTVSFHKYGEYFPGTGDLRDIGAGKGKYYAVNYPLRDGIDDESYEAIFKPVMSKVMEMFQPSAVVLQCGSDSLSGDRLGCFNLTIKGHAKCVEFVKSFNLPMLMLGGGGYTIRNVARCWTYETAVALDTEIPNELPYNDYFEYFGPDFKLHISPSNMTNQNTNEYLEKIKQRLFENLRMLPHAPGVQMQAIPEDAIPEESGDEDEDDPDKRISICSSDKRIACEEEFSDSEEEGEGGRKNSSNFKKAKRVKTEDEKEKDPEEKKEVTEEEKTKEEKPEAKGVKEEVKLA
Description: Inhibition of HDAC-1 (unknown origin) using (FAM)-labeled acetylated peptide as substrate after 17 hrs by fluorescence assay

Histone deacetylase 3 = Histone deacetylase 3 (Homo sapiens, UniProt O15379); assay: Inhibition of HDAC-3 (unknown origin) using (FAM)-labeled acetylated peptide as substrate after 17 hrs by fluorescence assay
Sequence of Histone deacetylase 3 (O15379 whole entry): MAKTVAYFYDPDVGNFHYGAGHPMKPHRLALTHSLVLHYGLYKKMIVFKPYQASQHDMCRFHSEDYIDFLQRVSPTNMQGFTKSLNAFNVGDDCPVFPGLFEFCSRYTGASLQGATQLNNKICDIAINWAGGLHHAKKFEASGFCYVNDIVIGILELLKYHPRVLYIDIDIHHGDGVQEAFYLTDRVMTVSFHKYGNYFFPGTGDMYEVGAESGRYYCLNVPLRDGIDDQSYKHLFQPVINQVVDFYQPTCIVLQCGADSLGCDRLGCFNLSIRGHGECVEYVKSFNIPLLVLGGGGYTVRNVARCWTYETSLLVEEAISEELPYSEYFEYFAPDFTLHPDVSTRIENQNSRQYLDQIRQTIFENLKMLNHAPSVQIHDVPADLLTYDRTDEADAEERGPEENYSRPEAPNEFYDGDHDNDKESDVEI

Histone deacetylase 2 = Histone deacetylase 2 (Homo sapiens, UniProt Q92769); assay: Inhibition of HDAC-2 (unknown origin) using (FAM)-labeled acetylated peptide as substrate after 17 hrs by fluorescence assay
Sequence of Histone deacetylase 2 (Q92769 whole entry): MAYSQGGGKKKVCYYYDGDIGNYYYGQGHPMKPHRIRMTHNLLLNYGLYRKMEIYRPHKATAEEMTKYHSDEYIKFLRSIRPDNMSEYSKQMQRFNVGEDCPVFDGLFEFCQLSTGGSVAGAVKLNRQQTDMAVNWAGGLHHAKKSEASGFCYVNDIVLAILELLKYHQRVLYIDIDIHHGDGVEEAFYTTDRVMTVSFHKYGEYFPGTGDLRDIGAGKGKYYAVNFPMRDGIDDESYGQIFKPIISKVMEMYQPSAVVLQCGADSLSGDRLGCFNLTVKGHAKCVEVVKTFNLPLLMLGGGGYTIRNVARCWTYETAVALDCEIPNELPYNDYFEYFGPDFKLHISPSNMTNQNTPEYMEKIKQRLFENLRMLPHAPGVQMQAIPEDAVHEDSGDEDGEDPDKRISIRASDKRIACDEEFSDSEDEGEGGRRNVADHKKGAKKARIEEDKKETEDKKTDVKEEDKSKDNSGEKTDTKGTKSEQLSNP

Homo sapiens [8] = species on record: Homo sapiens; assay: Selectivity ratio of IC50 for MAO-B (unknown origin) to IC50 for LSD-1 (unknown origin)
[9] = molecular target: T1, Lysine-specific histone demethylase 1A; assay: Inhibition of LSD-1 (unknown origin)
[10] = Growth inhibition of human KYSE-150 cells after 48 hrs; type: functional; conditions: KYSE-150, 48 h
[11] = molecular target: T4, NAD-dependent protein deacetylase sirtuin-2 (Homo sapiens, UniProt Q8IXJ6)
T4 sequence (Q8IXJ6 whole entry): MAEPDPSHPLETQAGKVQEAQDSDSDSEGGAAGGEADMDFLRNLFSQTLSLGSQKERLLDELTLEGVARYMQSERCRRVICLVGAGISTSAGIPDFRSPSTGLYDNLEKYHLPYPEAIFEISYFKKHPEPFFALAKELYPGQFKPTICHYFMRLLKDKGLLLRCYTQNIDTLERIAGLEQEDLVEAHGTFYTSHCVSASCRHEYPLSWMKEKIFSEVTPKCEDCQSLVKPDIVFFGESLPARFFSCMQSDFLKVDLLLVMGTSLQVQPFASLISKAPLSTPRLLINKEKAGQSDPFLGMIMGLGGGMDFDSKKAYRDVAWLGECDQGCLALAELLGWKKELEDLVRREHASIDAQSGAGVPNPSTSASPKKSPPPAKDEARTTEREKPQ
Description: Inhibition of recombinant human N-terminal His6-tagged SIRT-2 using ZMAL as substrate after 4 hrs by homogeneous fluorescent deacetylase assay

[12] = molecular target: T4, NAD-dependent protein deacetylase sirtuin-2; assay: Inhibition of human SIRT-2 using fluor de Lys as substrate after 2 hrs by fluorescence assay
Histone deacetylase [13] = assay: Inhibition of HDAC isolated from human HeLa cell nuclear extracts using Fluor de Lys as substrate after 30 mins by fluorescence assay; type: protein assay
[14] = Inhibition of DIM-5 (unknown origin)
[15] = molecular target: T5, Lysine-specific demethylase 4E (Homo sapiens, UniProt B2RXH2)
T5 sequence (B2RXH2 whole entry): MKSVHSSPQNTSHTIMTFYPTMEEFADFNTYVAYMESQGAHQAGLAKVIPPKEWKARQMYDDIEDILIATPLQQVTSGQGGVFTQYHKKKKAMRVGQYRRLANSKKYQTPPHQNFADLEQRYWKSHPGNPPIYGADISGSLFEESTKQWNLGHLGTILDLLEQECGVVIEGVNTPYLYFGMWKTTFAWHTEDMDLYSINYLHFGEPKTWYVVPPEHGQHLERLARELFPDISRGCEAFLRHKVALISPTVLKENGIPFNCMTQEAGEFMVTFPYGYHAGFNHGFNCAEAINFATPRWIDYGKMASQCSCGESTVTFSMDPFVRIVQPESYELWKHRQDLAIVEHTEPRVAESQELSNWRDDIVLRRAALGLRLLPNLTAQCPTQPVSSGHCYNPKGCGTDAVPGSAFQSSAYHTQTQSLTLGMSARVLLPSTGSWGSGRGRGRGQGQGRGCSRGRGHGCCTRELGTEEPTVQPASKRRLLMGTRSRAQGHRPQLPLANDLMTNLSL
Description: Inhibition of N-terminal His-6-tagged human JMJD2E (1 to 337 residues) expressed in Escherichia coli by MALDI-TOF/MS analysis

[16] = Inhibition of HAT isolated from human HeLa cell nuclear extracts using biotinylated histone H4 peptide as substrate after 8 mins
Homo sapiens [17] = species on record: Homo sapiens; assay: Selectivity ratio of IC50 for human CARM-1 to IC50 for human recombinant PRMT-1
[18] = molecular target: Protein arginine N-methyltransferase 1 (Homo sapiens, UniProt Q99873); assay: Inhibition of human recombinant PRMT-1 using Npl3p as substrate
Sequence of Protein arginine N-methyltransferase 1 (Q99873 whole entry): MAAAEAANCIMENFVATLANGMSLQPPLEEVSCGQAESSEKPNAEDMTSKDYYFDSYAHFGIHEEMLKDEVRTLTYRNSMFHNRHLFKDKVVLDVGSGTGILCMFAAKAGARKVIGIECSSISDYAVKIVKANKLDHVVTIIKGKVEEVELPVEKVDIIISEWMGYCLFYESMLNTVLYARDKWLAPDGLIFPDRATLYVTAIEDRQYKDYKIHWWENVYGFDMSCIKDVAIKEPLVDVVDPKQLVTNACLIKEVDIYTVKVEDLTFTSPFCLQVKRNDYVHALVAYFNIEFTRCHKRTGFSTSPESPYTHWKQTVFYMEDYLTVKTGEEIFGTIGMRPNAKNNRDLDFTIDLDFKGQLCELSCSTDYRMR

Homo sapiens [19] = species on record: Homo sapiens; assay: Selectivity ratio of IC50 for SET7 (unknown origin) to IC50 for human recombinant PRMT-2
[20] = molecular target: T4, NAD-dependent protein deacetylase sirtuin-2; assay: Inhibition of SIRT-2 (unknown origin)
Histone deacetylase [21] = assay: Inhibition of HDAC in human HeLa cells assessed as alpha-tubulin acetylation after 7 hrs; type: cell-based
Histone deacetylase [22] = assay: Inhibition of HDAC in human HeLa cells assessed as histone H3 hyperacetylation after 7 hrs; type: cell-based

IC50 [1]: 620 µM
Compound: O=C(O)/C=C/C(=O)N(O)CCCCNCc1ccc(COC(=O)Nc2cccc3ccccc23)cc1

inhibition [2]: > 50%
Compound: C/N=C(\NC)NCCCNCCCNCCCN/C(=N/C)NC

IC50 [3]: 5 µM
Compound: COc1cc(C(=O)C2=C3OC(C)(C)[C@@H](CC=C(C)C)C[C@@]34C[C@@H](CC=C(C)C)C(C)(C)[C@@](CC=C(C)C)(C2=O)C4=O)ccc1O

IC50 (CREB-binding protein): 500 µM
IC50 [4]: 100 µM
Compound: C=C1C(=O)O[C@@H](CCC)[C@@H]1C(=O)O

IC50 [5]: 7 µM
Compound: C=C(C)[C@@H](CC=C(C)C)C[C@@]12C[C@@H](CC=C(C)C)C(C)(C)[C@@](CC=C(C)C)(C(=O)C(C(=O)c3ccc(O)c(O)c3)=C1O)C2=O [GARCINOL]

Ki [6]: 0.019 µM
Compound: CC(=O)N[C@@H](CCCCNC(=O)CSCCNC(=O)CCNC(=O)[C@H](O)C(C)(C)COP(=O)(O)OP(=O)(O)OC[C@H]1O[C@@H](n2cnc3c(N)ncnc32)[C@H](O)[C@@H]1OP(=O)(O)O)C(N)=O

IC50 [7]: 0.03 µM
Compound: CNCCN1CCC(c2ccc3[nH]c(-c4ccccc4OC)c(F)c3c2)CC1

IC50 (Histone deacetylase 1): 14.6 µM
IC50 (Histone deacetylase 3): 0.988 µM
IC50 (Histone deacetylase 2): 4.8 µM
Compound: Nc1ccccc1NC(=O)CCCCCCC(=O)Nc1ccccc1N

Compound: NC1CC1c1c(F)cc(F)cc1OCc1ccccc1 (configuration not stated)
Ratio IC50 (Homo sapiens [8]): > 250
IC50 [9]: 0.99 µM

Compound: COC(=O)/C=C/C(=O)N(O)CCCCNCc1ccc(COC(=O)Nc2cccc3ccccc23)cc1
GI50 [10]: 5.1 µM

IC50 [11]: 2 µM
IC50 [12]: 0.176 µM
Compound: CCCCCCCCCCC[C@]1(CO)CCCC(=O)O[C@](CO)(CCCCCCCCCCC)CCCC(=O)O1

IC50 (Histone deacetylase [13]): 0.135 µM
Compound: O=C(CSSCC(=O)c1ccc(Br)cc1)c1ccc(Br)cc1

Compound: CN1C(=O)[C@@]23C[C@]4([C@]56C[C@@]78SS[C@@](CO)(C(=O)N7[C@H]5Nc5ccccc56)N(C)C8=O)c5ccccc5N[C@@H]4N2C(=O)[C@]1(CO)SS3 [CHAETOCIN]
IC50 [14]: 3 µM

IC50 [15]: 3 µM
Compound: Oc1ccc(C2CNCCc3c2cc(O)c(O)c3Cl)cc1 (configuration not stated) [FENOLDOPAM]

IC50 [16]: 6 µM
Compound: CCCCCCCCCCCCCC(Oc1cccc(OCc2ccccc2)c1)C(=O)O (configuration not stated)

Ratio IC50 (Homo sapiens [17]): 30
IC50 [18]: 3 µM
Ratio IC50 (Homo sapiens [19]): 10
Compound: O=C(/C=C/c1ccc(O)c(Br)c1)/C=C/c1cc(Br)c(O)c(Br)c1

IC50 [20]: 74 µM
Compound: NC(=O)c1ccccc1Nc1ccccc1 [ANILINOBENZAMIDE]

EC50 (Histone deacetylase [21]): 0.325 µM
IC50 (Histone deacetylase [13]): 0.045 µM
EC50 (Histone deacetylase [22]): 0.025 µM
Compound: CC(=O)SCC(=O)c1ccc(NS(=O)(=O)c2ccc(OCCCN(C)C)cc2)nc1
